Structures can show the parent of a compound that is named as a salt. Where two headings read alike, the source gives them in different places.
Columns and labels:
JARID1B = target: T1, JARID1B (Homo sapiens, UniProt Q9UGL1); assay: FLAG-JARID1B histone demethylase assay with AlphaScreen detection (HTS and dose response); format: biochemical; details: for inhibition at 20 µM / Inhibitory effect (percent): high-throughput screen, compound 20 μM; for inhibition at 20 µM: read-out: Inhibitory effect (percent); for Validation result of HTS active: effect of the compound in the JARID1B AlphaScreen demethylase assay / Assay Signal (percent): validation of HTS actives; for Validation result of HTS active: effect of the compound in the JARID1B AlphaScreen demethylase assay: total signal before subtraction of artifact signal; for Assay − Artifact Signal (percent): assay signal minus artifact signal; for Assay Signal (percent): effect of compound in JARID1B AlphaScreen assay;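 as to Assay Signal (percent): compound tested at 20 µM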;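 as to Assay − Artifact Signal (percent): compound tested at 20 µM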;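 as to all read-outs here: FLAG-tagged JARID1B at 4 nM acting on a biotinylated H3K4me3 peptide, demethylation read by AlphaScreen luminescence, with hits checked against bio-H3K4me2 without enzyme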
T1 construct: The FLAG tagged full length JARID1B enzyme was expressed in Sf21 insect cells using FLAG-JARID1B baculoviruses; FLAG (N); made in house; host or cells: Sf21 insect cells (baculovirus)

[1] = AlphaScreen counterscreen against bio-H3K4me2 peptide in the absence of enzyme (artifact signal); details: for Artifact signal: effect of the compound when it is incubated with bio-H3K4me2 peptide: counterscreen, no enzyme; for Artifact Signal (percent): effect of the compound when incubated with bio-H3K4me2 peptide (counterscreen, no enzyme);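 as to all read-outs here: counterscreen run without enzyme against bio-H3K4me2 peptide to remove false positive hits from the JARID1 demethylase AlphaScreen screen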
[2] = standard demethylase conditions (10 μM α-KG, 50 μM Fe (II))
[3] = IDs marked *: additional hits under reaction condition with 1 mM α-KG

T1 sequence (Q9UGL1 whole entry): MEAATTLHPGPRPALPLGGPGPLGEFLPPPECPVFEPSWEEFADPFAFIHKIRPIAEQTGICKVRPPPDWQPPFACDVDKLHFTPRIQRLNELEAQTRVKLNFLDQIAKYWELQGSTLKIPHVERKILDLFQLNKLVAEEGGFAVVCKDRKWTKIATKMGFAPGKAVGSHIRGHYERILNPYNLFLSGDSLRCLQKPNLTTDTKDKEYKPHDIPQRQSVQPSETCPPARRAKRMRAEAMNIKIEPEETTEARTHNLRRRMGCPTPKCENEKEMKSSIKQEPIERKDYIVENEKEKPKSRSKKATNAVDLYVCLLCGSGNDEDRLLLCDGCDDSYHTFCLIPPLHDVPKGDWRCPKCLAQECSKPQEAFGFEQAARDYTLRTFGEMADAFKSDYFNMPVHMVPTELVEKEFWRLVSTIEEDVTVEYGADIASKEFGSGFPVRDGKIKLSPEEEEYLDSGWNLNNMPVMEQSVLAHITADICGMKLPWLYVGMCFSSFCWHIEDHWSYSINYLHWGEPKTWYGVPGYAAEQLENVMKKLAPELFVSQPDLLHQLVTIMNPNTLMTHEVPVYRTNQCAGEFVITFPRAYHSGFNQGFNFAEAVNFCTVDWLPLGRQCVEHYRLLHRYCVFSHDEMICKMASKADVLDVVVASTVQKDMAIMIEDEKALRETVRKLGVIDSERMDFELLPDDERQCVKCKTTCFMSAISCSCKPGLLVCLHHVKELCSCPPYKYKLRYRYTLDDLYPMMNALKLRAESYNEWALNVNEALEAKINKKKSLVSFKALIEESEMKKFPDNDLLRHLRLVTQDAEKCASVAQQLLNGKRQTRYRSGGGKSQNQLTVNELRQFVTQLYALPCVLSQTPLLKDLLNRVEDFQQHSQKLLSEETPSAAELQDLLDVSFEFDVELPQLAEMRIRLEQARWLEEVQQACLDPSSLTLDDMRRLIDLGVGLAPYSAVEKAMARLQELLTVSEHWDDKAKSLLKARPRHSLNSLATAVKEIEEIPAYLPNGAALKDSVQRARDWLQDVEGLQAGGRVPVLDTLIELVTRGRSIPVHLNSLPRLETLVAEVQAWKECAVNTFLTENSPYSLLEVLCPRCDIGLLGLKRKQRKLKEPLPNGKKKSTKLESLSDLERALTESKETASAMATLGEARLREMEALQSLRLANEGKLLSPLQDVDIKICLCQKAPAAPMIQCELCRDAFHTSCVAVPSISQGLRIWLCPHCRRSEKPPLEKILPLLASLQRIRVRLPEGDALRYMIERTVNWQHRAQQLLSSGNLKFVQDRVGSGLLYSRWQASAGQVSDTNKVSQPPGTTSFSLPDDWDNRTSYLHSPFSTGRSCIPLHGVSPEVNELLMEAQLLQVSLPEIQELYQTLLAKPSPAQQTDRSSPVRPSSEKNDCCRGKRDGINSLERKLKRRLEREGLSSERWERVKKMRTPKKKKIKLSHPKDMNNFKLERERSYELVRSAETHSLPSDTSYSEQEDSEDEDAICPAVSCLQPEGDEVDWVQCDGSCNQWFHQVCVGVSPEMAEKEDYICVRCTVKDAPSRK

| Compound | inhibition at 20 µM (JARID1B; [2]) [%] | Validation result of HTS active: effect of the compound in the JARID1B AlphaScreen demethylase assay (JARID1B) | Artifact signal: effect of the compound when it is incubated with bio-H3K4me2 peptide [1] | Assay − Artifact Signal (percent) (JARID1B) [%] | Assay Signal (percent) (JARID1B) [%] | Artifact Signal (percent) [1] [%] | Inhibitory effect (percent) (JARID1B; [2]) [%] | inhibition at 20 µM (JARID1B; [3]) [%] |
| --- | --- | --- | --- | --- | --- | --- | --- | --- |
| CN(C)CCCN1c2ccccc2Sc2ccc(C(F)(F)F)cc21 [YU034370, TRIFLUPROMAZINE HYDROCHLORIDE, reference compound] | 66 | 4.23 | −2.95 |  |  |  |  |  |
| Cc1cc(N)c2ccccc2[n+]1CCCCCCCCCC[n+]1c(C)cc(N)c2ccccc21 [YU034372, DEQUALINIUM CHLORIDE, reference compound] | 42.1 |  |  | 32.23 | 32.80 | 0.57 |  |  |
| CCCCCCCCCCCCCCCC[N+](C)(C)C [YU034377, CETRIMONIUM BROMIDE, reference compound] | 94.2 | −6.81 | −6.13 |  |  |  |  |  |
| CN(C)C(=S)SSC(=S)N(C)C [YU034426, THIRAM, reference compound] | 64.2 |  |  | 59.23 | 66.73 | 7.49 |  |  |
| O=[N+]([O-])c1cc(O)c(O)c([N+](=O)[O-])c1 [YU034463, 3,5-DINITROCATECHOL, reference compound] |  |  |  | 27.05 | 38.78 | 11.72 | 49.87 |  |
| CCC(=O)O[C@]1(C(=O)CCl)[C@@H](C)C[C@H]2[C@@H]3CCC4=CC(=O)C=C[C@]4(C)[C@@]3(F)[C@@H](O)C[C@@]21C [YU034506, CLOBETASOL PROPIONATE, reference compound] | 98.9 | 5.62 | −1.34 |  |  |  |  |  |
| NC(=O)c1ncn([C@@H]2O[C@H](CO)[C@@H](O)[C@H]2O)n1 [YU034518, RIBAVIRIN, reference compound] | 79.7 |  |  | 23.17 | 17.20 | −5.97 |  |  |
| N.N.[Cl][Pt][Cl] [YU034538, CISPLATIN, reference compound] |  |  |  | 40.64 | 49.17 | 8.53 | 40.06 |  |
| NNC(=O)c1ccncc1.Nc1ccc(C(=O)O)c(O)c1 [YU034557, PASINIAZID, reference compound] |  |  |  | 42.63 | 44.38 | 1.76 | 46.37 |  |
| CC(=O)C(C)O[Si](C(C)C)(C(C)C)C(C)C (stereo not drawn) [YU035082] |  |  |  | 15.58 | 22.36 | 6.78 |  | 95.8 |
| CNC(C(=O)N(C)OC)C(C)C (stereo not drawn) [YU035100] | 88 |  |  | 11.75 | 13.14 | 1.39 |  |  |
| C=CCO[C@H]1[C@H](O)[C@H](OCC=C)[C@H](O)[C@@H](OCC=C)[C@@H]1O [YU035165] | 49.5 |  |  | 13.07 | 15.19 | 2.11 |  |  |
| CCN(CC)C(=S)SSC(=S)N(CC)CC [YU035331, reference compound] |  |  |  | 40.15 | 36.77 | −3.39 |  | 40.5 |
| C=CC1=C(C(=O)O)N2C(=O)[C@@H](NC(=O)/C(=N\OCC(=O)O)c3csc(N)n3)[C@H]2SC1 [YU039791, CEFIXIME TRIHYDRATE, reference compound] | 105 | 104.49 | 96.65 |  |  |  |  |  |
| O=C(O[C@@H]1Cc2c(O)cc(O)cc2O[C@@H]1c1cc(O)c(O)c(O)c1)c1cc(O)c(O)c(O)c1 [YU040338, Epigallocatechin gallate, reference compound] | 100 |  |  | 15.48 | 96.04 | 80.56 |  |  |
| Cc1cc(-c2ccc(NC(=O)CCC(=O)O)c(C)c2)ccc1NC(=O)CCC(=O)O [YU104987] | 55.2 | 7.41 | 3.17 |  |  |  |  |  |
| O=C(CCCCCCC(=O)N(c1ccccc1)c1ccccc1)N(c1ccccc1)c1ccccc1 [YU105079] | 68.9 | 44.39 | 43.24 |  |  |  |  |  |
| Cc1ccc(C)c(CN2CCN(Cc3ccccc3)CC2)c1 [YU105182] | 35.3 | 3.14 | −1.74 |  |  |  |  |  |
| Clc1cccc(N2CCN(Cc3ccc4ccccc4c3)CC2)c1 [YU105195] | 38.9 | 8.75 | 5.28 |  |  |  |  |  |
| Cc1ccc([N+](=O)[O-])cc1N(CC(=O)Nc1ccc(Cl)c(C(F)(F)F)c1)S(C)(=O)=O [YU121632] | 59.2 | 2.95 | −1.84 |  |  |  |  |  |
| c1cc(CNc2ccc(N3CCOCC3)cc2)ccn1 [YU129874] | 74.5 |  |  | 67.88 | 72.06 | 4.18 |  |  |
| CC(=O)NNC(=O)c1ccncc1 [YU129955] | 88.7 |  |  | 96.89 | 92.06 | −4.84 |  |  |
| OC1CCN(C(=S)NC2CC2)CC1 [YU144896] | 90.6 | −9.38 | −14.49 |  |  |  |  |  |
| CCn1c(S)nnc1-c1ccncc1 [YU144949] | 38.8 |  |  | 43.88 | 40.70 | −3.18 |  |  |
| CCC(=O)c1c(O)n(C)c(=O)n(C)c1=O [YU145029] | 61.6 |  |  | 34.42 | 34.53 | 0.11 |  |  |
| CCOc1c(O)ccc(C=O)c1[N+](=O)[O-] [YU145037] | 66.1 | −4.02 | −1.09 |  |  |  |  |  |
| O=C1NC(=O)C(c2ccc(Cl)cc2)N1 (stereo not drawn) [YU145089] | 78.3 | 4.23 | −1.01 |  |  |  |  |  |
| CSc1nc2cc(F)c(F)cc2n1C [YU145132] | 91.5 | −6.93 | −7.06 |  |  |  |  |  |
| CC(NC(=O)c1ccco1)c1ccncc1 (stereo not drawn) [YU145239] | 42.4 | 7.68 | 0.21 |  |  |  |  |  |

From patent US20150272939A1, “Identification of Small Molecule Inhibitors of Jumonji AT-Rich Interactive Domain 1A (JARID1A) and 1B (JARID1B) Histone Demethylase” (Yale University, priority 2012, published 2015)
